Literature values in patent publication US20160030469A1, “Human End Uses for a Gas Transporting Rheological Medium” (priority 2014, published 2016).

Settings: equilibrium with air (pO2=0.21) at 77° F.

- solubility limit of oxygen in water: approximately 8.3 mg/l
Structure (SMILES): O=O [oxygen]
